Reference: patent US6787651B2, “Substituted indoles, pharmaceutical compounds containing such indoles and their use as PPAR-γ binding agents” (SmithKline Beecham Corporation, priority 2000, dated 2004)

How the values were obtained:
[1] = biological target: T1, PPARγ ligand binding domain (LBD) (amino acids 195-475) (Homo sapiens, UniProt P37231); assay: PPAR-γ binding assay (spin plate / gel filtration binding assay, displacement of [3H]BRL 49653); settings: read-out: IC50 range in the PPAR-γ Binding Assay
T1 construct: polyHis; made in house; host or cells: Escherichia coli
T1 sequence (P37231 195-475 isoform P37231-2): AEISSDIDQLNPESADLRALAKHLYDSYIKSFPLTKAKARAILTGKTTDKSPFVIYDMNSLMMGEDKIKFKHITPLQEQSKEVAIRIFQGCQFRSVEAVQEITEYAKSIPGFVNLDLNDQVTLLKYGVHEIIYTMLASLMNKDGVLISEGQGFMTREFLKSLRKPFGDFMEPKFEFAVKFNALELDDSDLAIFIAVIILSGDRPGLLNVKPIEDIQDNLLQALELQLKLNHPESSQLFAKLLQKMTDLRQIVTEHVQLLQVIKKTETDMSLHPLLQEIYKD
Experimental: The activity of a given compound in binding to PPAR-γ can be assayed routinely according to procedures known in the art. […] The PPAR-γ binding assay described below was used to determine the PPAR-γ binding activities of the compounds of the invention.
Compounds were tested for their ability to bind to PPARγ using a spin plate assay (gel filtration binding assay). […] Each compound was tested in triplicate. […] The plates were centrifuged (Beckman GS-6R) at 2500 rpm for 5 minutes, 170 μl Scitisafe® scintillation fluid (Fisher) was added to each well, the plates were sealed, and after 1 hour, were counted in a Wallac MicroBeta counter. The amount of nonspecific binding, as assessed by control wells containing 10 μM of the corresponding unlabeled ligand, was subtracted from each data point. For each compound tested, the data was averaged and plots of ligand concentration versus CPM of radioligand bound were constructed. Apparent IC50 values were estimated from nonlinear least-squares fit of the data assuming simple competitive binding.

SMILES | IC50 [1] [nM] | melting point
COc1cccc(Cn2c(C(=O)O)c(-c3cccc(C(=O)NC4CCCC4)c3)c3ccccc32)c1 [Example 329] | 10 to 10000 | 108 °C
COc1cccc(Cn2c(C(=O)O)c(-c3ccc(C(C)(C)C)cc3)c3cc(NCC4CC4)ccc32)c1 [Example 335] | 0.1 to 9.99 | 180 to 181 °C
O=C(O)c1c(-c2cccc(OCC3CC3)c2)c2ccccc2n1Cc1ccc(F)cc1 [Example 339, 3-[3-(Cyclopropylmethoxy)phenyl]-1-[(4-fluorophenyl)methyl]indole-2-carboxylic Acid] | 0.1 to 9.99 | 200 to 202 °C
O=C(O)c1c(-c2ccc(OCC3CC3)cc2)c2ccccc2n1Cc1ccc(F)cc1 [Example 341] | 0.1 to 9.99 | 197 to 198 °C
COc1cccc(Cn2c(C(=O)O)c(-c3ncc(C(C)=O)s3)c3ccccc32)c1 [Example 343] | 0.1 to 9.99 | 218 °C (dec.)
COc1cccc(Cn2c(C(=O)O)c(-c3cccc(OCC4CC4)c3)c3ccccc32)c1 [Example 345] | 0.1 to 9.99 | 147 to 148 °C
O=C(O)c1c(-c2ccc(OCC3CC3)cc2)c2ccccc2n1Cc1cccc(OC(F)(F)F)c1 [Example 346] | 0.1 to 9.99 | 204 to 205 °C

The next lines start with the values.

IC50 [1] [nM] | melting point | SMILES
0.1 to 9.99 | 171 to 173 °C | CCOc1ccc(-c2c(C(=O)O)n(Cc3ccc(F)cc3)c3ccc(COCC4CC4)cc23)cc1 [Example 347, 5-[(Cyclopropylmethoxy)methyl]-3-(4-ethoxyphenyl)-1-(4-fluorobenzyl)-1H-indole-2-carboxylic acid]
10 to 10000 | 162 °C | COc1ccc(-c2c(C(=O)NS(=O)(=O)c3ccc(C)cc3)n(Cc3cccc(C(F)(F)F)c3)c3ccccc23)cc1 [Example 358]
0.1 to 9.99 | 166 °C | COc1ccc(-c2c(C(=O)NS(=O)(=O)c3ccc(Cl)cc3)n(Cc3cccc(C(F)(F)F)c3)c3ccccc23)cc1 [Example 359]
